Patent US6291657A (priority 1993, dated 2001)

Tests used:
β-glucosidases = conditions: Legler & Pohl, 1986; cited from earlier work
[1] = test system: oligosaccharide biosynthesis in BW5147 cells; assay: Glycopeptide analysis by Con A-SEPHAROSE chromatography, BW5147 cells; format: cell-based, murine
[2] = test system: cholera toxin binding sites on H9 cells; format: cell-based, human; conditions: h9 cells, 4320 min
α-glucosidase I and II = assay: Inhibition of purified processing α-glucosidase I and II; format: biochemical; conditions: mixture of purified α-glucosidases I and II
Experimental: Porcine liver α-glucosidase I and rat liver α-glucosidase II were purified to homogeneity and assayed by conventional procedure using a [^14 C]-glucose labelled Glc3 Man9 GlcNAc2 substrate as previously described by Karlsson et al., J. Biol. Chem. 268, 570-576 (1993).
Enzymes were assayed according to procedure described hereinbefore using
The data from FIG. 8 were […]

[3] = test system: oligosaccharide biosynthesis in HL-60 cells; assay: Glycopeptide analysis by Con A-SEPHAROSE chromatography, HL-60 cells; format: cell-based, human
[4] = target: UDP-glucose:N-acylsphingosine glucosyltransferase; assay: Inhibition of UDP-glucose:N-acylsphingosine glucosyltransferase; format: biochemical, rat brain, mouse macrophage (WEHI-3B); conditions: rat brain or mouse macrophage homogenates; read-out: IC50
[5] = test system: glycolipid biosynthesis in HL-60 cells; assay: Inhibition of glycolipid biosynthesis in HL-60 cells, [14C]-palmitic acid labelling, 1D-TLC; format: cell-based, human;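 further: cells cultured 24 h with or without test compound, total cellular lipids resolved by one-dimensional TLC and detected by autoradiography, inhibition shown as missing Glc-Cer and gangliosides versus untreated cells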
[6] = test system: glucocerebrosidase in WEHI-3B cells; conditions: WEHI-3B cells in the absence of CBE; cited from earlier work
WEHI-3B cell lysosomes = assay: Transmission electron microscopy of lysosomes of CBE treated WEHI-3B cells; format: cell-based, murine; conditions: transmission electron microscopy (FIG. 6)
HL-60 cells = assay: Cytotoxicity in the dose range tested; format: cell-based, human
[7] = test system: glycolipid and phospholipid species in HL-60 cells; assay: 2D-TLC analysis of total HL-60 lipids labelled with [14C]-palmitic acid; format: cell-based, human; conditions: 2D-TLC (FIG. 2)
Experimental: 2D-TLC separation was made of total HL-60 lipids labelled with [^14 C]-palmitic acid. Cells were treated with either 0.5 mM NB-DNJ or NB-DGJ or untreated (UT). Lipids were assigned as follows (untreated cells, lefthand panel, FIG. 2A): 1, gangliosides; 2, lysophospatidylcholine; 3, ceramide phosphorylcholine; 4, ceramide phosphorylethanolamine; 5, phospatidylcholine; 6, phosphatidylinositol; 7, phosphatidylethanolamine; 8, phosphatidylglycerol; 9, diglycosylceramide; 10, monoglycosylceramide; 11, cholesterol/fatty acids/neutral lipids; N and N* are unknowns; and 0 is the sample origin. Following NB-DNJ and NB-DGJ treatment (middle and righthand panels, FIGS. 2B and 2C, respectively) species 1 (gangliosides);9 (diglycosylceramide); 10 (monoglycosylceramide) and N* (unknown) were absent. The radiolabelled lipids were visualized by autoradiography.
HL-60 cells were cultured by conventional procedure as previously described by Platt et al., Eur. J. Biochem. 208, 187-193 (1992). HL-60 cells at 5×10^4 cells/ml were cultured in the presence or absence of imino sugars for 24 hr. For labelling, the two dimensional thin layer chromatography (2D-TLC) conventional method of Butters and Hughes was followed [In Vitro 17, 831-838 (1981)]. Briefly, [^14 C]-palmitic acid (56.8 mCi/mmol, ICN/Flow) was added as a sonicated preparation in foetal calf serum (FCS, Techgen, London, U.K., 0.5 μCi/ml) and the cells cultured for a further 3 days maintaining the imino sugars in the medium. The cells were harvested, washed three times with phosphate buffered saline (PBS), extracted in 1 ml chloroform:methanol (2:1 v/v) and separated by 1 dimensional TLC, loading equal counts (1D-TLC, chloroform:methanol:water (65:25:4)). For two dimensional separations the one dimensional separation was performed as described above, the plate dried overnight under vacuum and separated in the second dimension using a solvent of tetrahydrofuran: dimethoxymethane:methanol:water (10:6:4:1). Plates were air dried and exposed to Hyperfilm-MP high performance autoradiography film (Amersham).

[8] = test system: N-linked oligosaccharide processing of gp120 in CHO cells (α-glucosidases I and II); assay: Endo H sensitivity of gp120 expressed in CHO cells (N-linked oligosaccharide processing); format: cell-based, Chinese hamster; conditions: 0.5 mM or 5 mM (FIG. 7)
Experimental: The arrows indicate the molecular weight of the untreated gp120 (120 kDa) and post endo H digestion (60 kDa). An additional band of low molecular weight (approximately 60 kDa) was present in some lanes and is a non-specific protein precipitated by the solid phase matrix.
The culture of CHO cells expressing soluble recombinant gp120 (from Dr. P. Stevens, MRC AIDS Directed Programme Reagent Project) and the radiolabelling of these cells was carried out by conventional procedure as described by Karlsson et al., J. Biol. Chem. 268, 570-576 (1993). Briefly, CHO cells were harvested mechanically, washed three times with phosphate buffered saline, 0.1M pH 7.2 (PBS) and resuspended in methionine- and cysteine-free RPMI-1640 medium (ICN-Flow Laboratories, High Wycombe, Bucks, U.K.) supplemented with 1% dialysed FCS. Cells (10^7 /ml) were preincubated in the presence or absence of NB-DNJ or NB-DGJ for 1 hr prior to the addition of 100 μCi/ml Tran^35 S-label (ICN-Flow) for 4 hr. The supernatants were collected and concentrated tenfold using a 30 kDa cut-off membrane (Amicon, Danvers, Mass., U.S.A.).
Immunoprecipitations were performed by conventional procedure as described by Karlsson supra. Supernatants were incubated with the mAb ABT 1001 monoclonal antibody (American Biotechnologies Inc., Cambridge, Mass., U.S.A.) at 0.5 μg/100 μl of supernatant for 30 min. at room temperature followed by sheep anti-mouse IgG1-coated magnetic beads (Dynal Ltd., Wirral, Merseyside, U.K., 1.2×10^7 beads per sample) for 1 hr. at 4° C. The beads were washed three times with 2% TRITON® X-100 in PBS and three times with PBS. Gp120 was eluted in […] reducing SDS-PAGE sample buffer with heating (95° C., 5 min.). Each sample was divided into two equal aliquots and 25 μl of dH2 O added to give a final volume of 50 μl. To one half of each sample 2 μl of endoglycosidase H (endo H, 1 unit/ml, Boehringer Mannheim Ltd., Lewes, Sussex, U.K.) was added and the other half left untreated. […]

α-glucosidase I = conditions: cell culture systems, Karlsson et al.; cited from earlier work
[9] = test system: N-linked oligosaccharide processing of gp120 in CHO cells (α-glucosidases I and II); conditions: previously tested [Karlsson et al.]; cited from earlier work

CCCCCCCN1C[C@H](O)[C@@H](O)[C@@H](O)[C@H]1CO [N-heptyldeoxygalactonojirimycin]
affinity towards certain β-glucosidases (β-glucosidases): modest increase in the affinity

CCCCN1C[C@H](O)[C@@H](O)[C@H](O)[C@H]1CO [NB-DNJ, N-Butyldeoxynojirimycin]
Total 3H-mannose recovered [1]: 686026 cpm | Bi-antennary ([1]; percentage of radiolabelled glycopeptides eluted with 10 mM methylglucoside): 4.9% | Oligo-mannose & hybrid ([1]; percentage of radiolabelled glycopeptides eluted with 500 mM methylmannoside): 68.3% | Tetra- & Tri-antennary ([1]; percentage of radiolabelled glycopeptides non-bound): 26.8% | reduction in cholera toxin binding [2]: approximately 90% | IC50 (α-glucosidase I and II): 360 nM | Total 3H-mannose recovered ([3]; HL-60): 913095 cpm | Bi-antennary ([3]; HL-60, percentage of radiolabelled glycopeptides eluted with 10 mM methylglucoside): 20.0% | Oligo-mannose & hybrid ([3]; HL-60, percentage of radiolabelled glycopeptides eluted with 500 mM methylmannoside): 60.5% | Tetra- & Tri-antennary ([3]; HL-60, percentage of radiolabelled glycopeptides non-bound): 19.5% | glycopeptide profile by Con A-SEPHAROSE chromatography ([3]; HL-60 and BW5147): changes the affinity of glycopeptides | proportion of unbound glycans (tetra- and tri-antennary species) ([3]; HL-60 and BW5147): decreases | proportion of high mannose/hybrid glycans tightly bound to Con A-SEPHAROSE ([3]; HL-60 and BW5147, eluted with 500 mM methylmannoside): increase | IC50 [4]: 2950 nM | lipid species whose biosynthesis was inhibited ([5]; HL-60, 500 μM, 1D-TLC): inhibited the biosynthesis of Glc-Cer, gangliosides and an unknown lipid species | inhibition of glycolipid biosynthesis ([5]; HL-60, 500 μM, 1D-TLC (FIG. 1)): specifically inhibited glycolipid biosynthesis | effect of N-alkyl chain length on inhibition of glycolipid biosynthesis (loss of detectable Glc-Cer) ([5]; HL-60, 0.5 mM, 1D-TLC (FIG. 4)): completely inhibited glycolipid biosynthesis | minimal effective concentration ([5]; Homo sapiens, HL-60, 1D-TLC (FIG. 3), partial inhibition, read-out: concentrations as low as which partial inhibition occurred): 0.5 to 5 µM | Glc-Cer accumulation [6]: accumulated Glc-Cer | glycolipid accumulation in lysosomes (WEHI-3B cell lysosomes): prevented the glycolipid accumulation | cytotoxicity (HL-60 cells): non-cytotoxic | gangliosides, unknown lipid (N*), mono and dihexaside species following treatment ([7]; HL-60, 0.5 mM): absent | depletion of glycolipid species ([7]; HL-60, 500 μM): total depletion of glycolipid species | endo H sensitivity of gp120 N-linked glycans [8]: fully endo H sensitive | concentration for α-glucosidase I inhibition (α-glucosidase I): 0.5 mM | endo H sensitivity of high mannose oligosaccharides on gp120 [9]: fully sensitive to endo H
